In ChEMBL document CHEMBL1201862, “PubChem BioAssay data set” (2004):
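How tested: cells in 96-well plates exposed to compound for 48 hours at five concentrations. Abbreviation: GI50, concentration required for 50% inhibition of growth.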 Activity calls are given as the source filed them. No stated cut-off is given here; in the data, active = GI50 up to about 1.1 µM and inactive = higher.

How the values were obtained:
Assay in all cases: NCI tumour cell line growth inhibition, 48 h
[1] = test system: ACHN
[2] = test system: HCT-116
[3] = test system: HL-60
[4] = test system: IGROV-1
[5] = test system: K562
[6] = test system: LOX IMVI
[7] = test system: M14
[8] = test system: MOLT-4
[9] = test system: NCI-H23
[10] = test system: OVCAR-5
[11] = test system: OVCAR-8
[12] = test system: SK-MEL-28
[13] = test system: SK-MEL-2
[14] = test system: SK-MEL-5
[15] = test system: SR
[16] = test system: SW-620
[17] = test system: UACC-257
[18] = test system: KM12
[19] = test system: OVCAR-4
[20] = test system: NCI-H460

| Compound | GI50 [1] | GI50 [2] | GI50 [3] | GI50 [4] | GI50 [5] | GI50 [6] | GI50 [7] | GI50 [8] | GI50 [9] | GI50 [10] | GI50 [11] | GI50 [12] | GI50 [13] | GI50 [14] | GI50 [15] | GI50 [16] | GI50 [17] | GI50 [18] | GI50 [19] | GI50 [20] |
| --- | --- | --- | --- | --- | --- | --- | --- | --- | --- | --- | --- | --- | --- | --- | --- | --- | --- | --- | --- | --- |
| CCOC(=O)C(NC(=O)CC)(Nc1cc(C)on1)C(F)(F)F (stereo not drawn) | > 100 µM (inactive) | > 100 µM (inactive) | > 100 µM (inactive) | > 100 µM (inactive) | > 100 µM (inactive) | > 100 µM (inactive) | > 100 µM (inactive) | > 100 µM (inactive) | > 100 µM (inactive) | > 100 µM (inactive) | > 100 µM (inactive) | > 100 µM (inactive) | > 100 µM (inactive) | > 100 µM (inactive) | > 100 µM (inactive) | > 100 µM (inactive) | > 100 µM (inactive) | – | – | – |
| COc1ccc(-c2cc(O)c3cc(OC)ccc3n2)cc1 | > 100 µM (inactive) | > 100 µM (inactive) | > 100 µM (inactive) | > 100 µM (inactive) | > 100 µM (inactive) | > 100 µM (inactive) | > 100 µM (inactive) | > 100 µM (inactive) | > 100 µM (inactive) | > 100 µM (inactive) | > 100 µM (inactive) | > 100 µM (inactive) | – | > 100 µM (inactive) | > 100 µM (inactive) | > 100 µM (inactive) | > 100 µM (inactive) | > 100 µM (inactive) | > 100 µM (inactive) | – |
| O=C1c2ccccc2C(=O)c2[nH]cnc21 | 66.7 µM (inactive) | 45.4 µM (inactive) | 23.6 µM (inactive) | – | 78.7 µM (inactive) | – | 41.4 µM (inactive) | 49.5 µM (inactive) | 30.2 µM (inactive) | – | 34.7 µM (inactive) | > 100 µM (inactive) | > 100 µM (inactive) | 18.1 µM (inactive) | 44 µM (inactive) | – | 23 µM (inactive) | 53.8 µM (inactive) | 76.6 µM (inactive) | 32.1 µM (inactive) |
| O=C(c1ccccc1)N1CCC(Nc2cccnc2)O1 (stereo not drawn) | > 100 µM (inactive) | > 100 µM (inactive) | > 100 µM (inactive) | > 100 µM (inactive) | > 100 µM (inactive) | – | > 100 µM (inactive) | > 100 µM (inactive) | > 100 µM (inactive) | > 100 µM (inactive) | > 100 µM (inactive) | > 100 µM (inactive) | > 100 µM (inactive) | > 100 µM (inactive) | > 100 µM (inactive) | > 100 µM (inactive) | – | > 100 µM (inactive) | – | > 100 µM (inactive) |
| Cn1c(=O)[nH]c2[nH]c3ccccc3c2c1=O | > 100 µM (inactive) | > 100 µM (inactive) | > 100 µM (inactive) | > 100 µM (inactive) | > 100 µM (inactive) | > 100 µM (inactive) | > 100 µM (inactive) | > 100 µM (inactive) | > 100 µM (inactive) | > 100 µM (inactive) | > 100 µM (inactive) | > 100 µM (inactive) | > 100 µM (inactive) | > 100 µM (inactive) | > 100 µM (inactive) | > 100 µM (inactive) | > 100 µM (inactive) | > 100 µM (inactive) | – | – |
| O=[N+]([O-])c1ccc(N/N=C(\c2ccccc2)c2ccccn2)nc1 | 0.0785 µM (active) | 0.21 µM (active) | < 0.01 µM (active) | 1.11 µM (active) | – | – | 0.182 µM (active) | – | 0.845 µM (active) | 14.4 µM (inactive) | 0.914 µM (active) | 9.14 µM (inactive) | 14.8 µM (inactive) | 1.85 µM (inactive) | 1.48 µM (inactive) | 0.223 µM (active) | 0.262 µM (active) | 6.62 µM (inactive) | 18.7 µM (inactive) | 0.957 µM (active) |
| COc1ccc(/N=C(/[N-]n2c(=O)c(C)nn(C)c2=S)N(c2ccc(OC)cc2)c2n[n+]3c(=O)c(C)nn(C)c3s2)cc1 | > 100 µM (inactive) | > 100 µM (inactive) | > 100 µM (inactive) | > 100 µM (inactive) | > 100 µM (inactive) | > 100 µM (inactive) | > 100 µM (inactive) | > 100 µM (inactive) | > 100 µM (inactive) | > 100 µM (inactive) | > 100 µM (inactive) | > 100 µM (inactive) | – | > 100 µM (inactive) | > 100 µM (inactive) | > 100 µM (inactive) | > 100 µM (inactive) | > 100 µM (inactive) | > 100 µM (inactive) | > 100 µM (inactive) |
| Cc1cn(C2CC(N)C(C(=O)O)O2)c(=O)[nH]c1=O (stereo not drawn) | > 100 µM (inactive) | > 100 µM (inactive) | > 100 µM (inactive) | > 100 µM (inactive) | > 100 µM (inactive) | – | > 100 µM (inactive) | > 100 µM (inactive) | > 100 µM (inactive) | > 100 µM (inactive) | > 100 µM (inactive) | – | > 100 µM (inactive) | > 100 µM (inactive) | > 100 µM (inactive) | > 100 µM (inactive) | > 100 µM (inactive) | > 100 µM (inactive) | > 100 µM (inactive) | > 100 µM (inactive) |
| CCN(CC)CCNc1c(OC)cc(C)c2sc3ccccc3c(=O)c12 | 4.46 µM (inactive) | 4.66 µM (inactive) | 5.45 µM (inactive) | 7.69 µM (inactive) | 1.71 µM (inactive) | – | 3.71 µM (inactive) | 2.31 µM (inactive) | 14.5 µM (inactive) | 3.72 µM (inactive) | 7.82 µM (inactive) | 1.92 µM (inactive) | 12.6 µM (inactive) | 1.91 µM (inactive) | 3.15 µM (inactive) | 5.35 µM (inactive) | 1.82 µM (inactive) | 5.41 µM (inactive) | 5.3 µM (inactive) | 4.5 µM (inactive) |
| CNC(=S)Nc1ccc(OC)c2ccccc12 | > 10 µM (inactive) | > 10 µM (inactive) | > 10 µM (inactive) | > 10 µM (inactive) | > 10 µM (inactive) | > 10 µM (inactive) | > 10 µM (inactive) | > 10 µM (inactive) | > 10 µM (inactive) | > 10 µM (inactive) | > 10 µM (inactive) | > 10 µM (inactive) | – | > 10 µM (inactive) | > 10 µM (inactive) | > 10 µM (inactive) | > 10 µM (inactive) | > 10 µM (inactive) | > 10 µM (inactive) | – |
| CC1CCc2c(sc3ncnc(N/N=C/c4ccc(Cl)c(Cl)c4)c23)C1 (stereo not drawn) | 5.38 µM (inactive) | 4.55 µM (inactive) | 22.2 µM (inactive) | 37.2 µM (inactive) | 4.4 µM (inactive) | 11.9 µM (inactive) | 14.3 µM (inactive) | 7.4 µM (inactive) | 13.2 µM (inactive) | 32.7 µM (inactive) | 17.9 µM (inactive) | 21.2 µM (inactive) | 10.3 µM (inactive) | 16.7 µM (inactive) | 4.83 µM (inactive) | 6.07 µM (inactive) | 31 µM (inactive) | – | – | 7.4 µM (inactive) |
| CC(=O)CC(=O)Nc1ccccc1[N+](=O)[O-] | > 100 µM (inactive) | > 100 µM (inactive) | > 100 µM (inactive) | > 100 µM (inactive) | > 100 µM (inactive) | – | > 100 µM (inactive) | > 100 µM (inactive) | > 100 µM (inactive) | > 100 µM (inactive) | > 100 µM (inactive) | > 100 µM (inactive) | > 100 µM (inactive) | > 100 µM (inactive) | > 100 µM (inactive) | > 100 µM (inactive) | > 100 µM (inactive) | > 100 µM (inactive) | > 100 µM (inactive) | > 100 µM (inactive) |
| CO[C@]12CCC(=O)N1C=Cc1c2[nH]c2ccccc12 | > 100 µM (inactive) | > 100 µM (inactive) | > 100 µM (inactive) | > 100 µM (inactive) | > 100 µM (inactive) | > 100 µM (inactive) | > 100 µM (inactive) | > 100 µM (inactive) | > 100 µM (inactive) | > 100 µM (inactive) | > 100 µM (inactive) | > 100 µM (inactive) | – | > 100 µM (inactive) | > 100 µM (inactive) | > 100 µM (inactive) | > 100 µM (inactive) | – | > 100 µM (inactive) | > 100 µM (inactive) |
| Cc1nc2c(o1)/C(=N\c1ccccc1)c1nc(C)oc1/C2=N/c1ccccc1 | 17.9 µM (inactive) | 19.4 µM (inactive) | 49.9 µM (inactive) | 4.73 µM (inactive) | 33 µM (inactive) | 28.2 µM (inactive) | 36.4 µM (inactive) | 27.5 µM (inactive) | 25.9 µM (inactive) | 34 µM (inactive) | 15.3 µM (inactive) | 23.9 µM (inactive) | 26.8 µM (inactive) | 1.06 µM (active) | 60.5 µM (inactive) | 34.4 µM (inactive) | 29.6 µM (inactive) | – | – | 29.3 µM (inactive) |
| N=C(N)c1ccc(/N=N/c2c(O)ccc3cc(O)ccc23)cc1 | > 100 µM (inactive) | > 100 µM (inactive) | > 100 µM (inactive) | > 100 µM (inactive) | > 100 µM (inactive) | – | > 100 µM (inactive) | > 100 µM (inactive) | – | > 100 µM (inactive) | > 100 µM (inactive) | > 100 µM (inactive) | > 100 µM (inactive) | > 100 µM (inactive) | 24.7 µM (inactive) | > 100 µM (inactive) | > 100 µM (inactive) | > 100 µM (inactive) | > 100 µM (inactive) | > 100 µM (inactive) |
